This passage reports IC50 results from US20180263996A1, “ARYL SULTAM DERIVATIVES AS RORc MODULATORS” (Genentech, Inc., priority 2015, published 2018).

The target of this assay is T1, RORc (Homo sapiens, UniProt P51449).
T1 construct: host or cells: E. coli
T1 sequence (P51449 269-508 limits assumed): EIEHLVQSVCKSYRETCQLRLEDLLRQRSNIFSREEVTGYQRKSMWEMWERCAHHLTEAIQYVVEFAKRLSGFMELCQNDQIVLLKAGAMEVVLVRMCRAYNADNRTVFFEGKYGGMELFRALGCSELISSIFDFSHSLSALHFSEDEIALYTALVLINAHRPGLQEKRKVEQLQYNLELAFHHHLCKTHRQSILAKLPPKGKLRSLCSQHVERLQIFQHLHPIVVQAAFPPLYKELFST
Nature of the assay: In Vitro RORc Ligand Binding Assay. Particulars: IC50 values for RORc.
With `C[C@H]1CC[C@H](c2ccccc2)S(=O)(=O)N1Cc1cc(F)c([C@]2(C(N)=O)C[C@@](C)(O)C2)cc1F` [Compound 49, 1-[2,5-difluoro-4-[[(3S,6R)-3-methyl-1,1-dioxo-6-phenyl-thiazinan-2-yl]methyl]phenyl]-3-hydroxy-3-methyl-cyclobutanecarboxamide], the IC50 (usually the concentration that gives 50% inhibition) was 199 nM. The molecule `CC(NCc1cnoc1)c1cc(F)c(CN2[C@@H](C)CC[C@H](c3ccccc3)S2(=O)=O)cc1F` (stereo partly drawn) [Compound 50, 1-[2,5-difluoro-4-[[(3S,6R)-3-methyl-1,1-dioxo-6-phenyl-thiazinan-2-yl]methyl]phenyl]-N-(isoxazol-4-ylmethyl)ethanamine] registered an IC50 of 22 nM.

As for `CC(NC(=O)Cc1cnoc1)c1cc(F)c(CN2[C@@H](C)CC[C@H](c3ccccc3)S2(=O)=O)cc1F` (stereo partly drawn) [Compound 52, N-[1-[2,5-difluoro-4-[[(3S,6R)-3-methyl-1,1-dioxo-6-phenyl-thiazinan-2-yl]methyl]phenyl]ethyl]-2-isoxazol-4-yl-acetamide], the IC50 was 101 nM. With `CC(NCc1cocn1)c1cc(F)c(CN2[C@@H](C)CC[C@H](c3ccccc3)S2(=O)=O)cc1F` (stereo partly drawn) [Compound 54, 1-[2,5-difluoro-4-[[(3S,6R)-3-methyl-1,1-dioxo-6-phenyl-thiazinan-2-yl]methyl]phenyl]-N-(oxazol-4-ylmethyl)ethanamine] the figure was 255 nM.
